According to patent publication US11135310B2, “Gold porphyrin-PEG conjugates and methods of use” (The University of Hong Kong, priority 2015, dated 2021):

Legend:
[1] = system: MIHA; assay: In vitro cytotoxicity, MTT assay; details: MIHA; MTT assay, 72 h incubation
[2] = system: A2780adr cells; assay: Cellular uptake by ICP-MS; format: cell-based, human; details: 2 μM, 37° C.
Text: Based on the results of previous study on cellular uptake of nanostructures [Davis, M. E. et al. Nat. Rev. Drug Discov. 2008, 7, 771] and the strong dependence of the uptake mechanism of 1 on temperature, K^+ concentration and hypertonic condition (FIG. 3d), nanostructures of 1 likely entered live cells by clathrin-mediated endocytosis.
To rationalize the lower toxicity of NC1 toward MIHA cells, cellular uptake of NC1 by MIHA and cancer cells has been investigated by ICP-MS (FIGS. 3b and 4). The gold contents in A2780 and A2780adr cells were 2.6- and 2.0-fold higher than that in MIHA cells, respectively, after incubation with NC1 for 2 h. […] On the other hand, co-incubation of MIHA cells with 1 and DOX should not lead to significant changes in cellular uptake rate of DOX. […] For NC1, it was less toxic toward MIHA cells as reflected by the apparent “strong antagonism” (Table 3), which should be owing to the decrease of DOX cellular uptake by the encapsulation from the nanostructures of 1, rather than real antagonism from DOX and 1.

[3] = system: HeLa; assay: In vitro cytotoxicity, MTT assay; format: cell-based, human
Text: Therefore, it was anticipated that a not too high loading of DOX into nanostructures of 1 could be used for anti-cancer purposes in order to maintain low toxicity toward non-tumorigenic cells. Together with the higher encapsulation efficiency of DOX, NC1 was selected for investigations of the in vitro cytotoxicity. […] The in vitro cytotoxicity of NC1 was also compared to that of the mixture of nanostructures of 1 and DOX. […] The observed cytotoxicity was further evaluated by the combination index (CI), which can describe the effect of drug combination. […] It is shown that dose and effect are interchangeable via defined parameters. This general equation for the single drug effect has been extended to the multiple drug effect equation for n drugs. These equations provide the theoretical basis for the combination index (CI)-isobologram equation that allows quantitative determination of drug interactions, where CI<1, =1, and >1 indicate synergism, additive effect, and antagonism, respectively. [Chou, et al. Pharmacol. Rev. 2006, 58, 621] […] The synergistic effect can originate from different molecular targets and/or mechanism of action of DOX from that of gold(III) porphyrin complexes. […] These different modes of action would allow supra-additive effect on killing HeLa cells by the co-delivery.

[4] = system: NCM460 cells; assay: Induction of apoptosis, CellEvent Caspase-3/7 Green (microscopy and flow cytometry); details: NCM460, 2 μM, fluorescence microscopy
[5] = system: NCI-H460; assay: In vitro cytotoxicity, MTT assay; format: cell-based, human
[6] = system: non-tumorigenic cells; assay: In vitro cytotoxicity, MTT assay, non-tumorigenic cells; format: cell-based; details: 72 h
[7] = system: NCM460; assay: In vitro cytotoxicity, MTT assay; format: cell-based, human; details: 72 h incubation
[8] = system: A2780adr
[9] = system: CCD-19Lu; assay: In vitro cytotoxicity, MTT assay; format: cell-based; details: 72 h incubation
[10] = acute toxicological study, Chem. Commun. 2011, 47, 9554; cited from earlier work
[11] = system: A2780cis; assay: In vitro cytotoxicity, MTT assay; format: cell-based, human
[12] = system: HCT116 cells; assay: Apoptosis by FITC-Annexin V staining, flow cytometry; format: cell-based, human; details: HCT116, 2 μM, 24 h
Text: (§1) The selective induction of apoptosis of HCT116 cells over NCM460 cells by 1 was further studied using FITC-Annexin V staining. Phosphatidylserine residues, which are located on the cytoplasmic surface of the cell membrane in normal live cells, will be translocated to outer plasma membrane in apoptotic cells. […] The quantity of apoptotic cells stained by FITC-Annexin V after treatment with 1 and Au1a was investigated by flow cytometry.

[13] = system: NCM460 cells; assay: as above; format: cell-based, human; details: NCM460, 2 μM, 24 h
Text: as §1

[14] = system: HCT116; assay: In vitro cytotoxicity, MTT assay; format: cell-based, human
[15] = system: HCT116 cells; assay: Induction of apoptosis, CellEvent Caspase-3/7 Green (microscopy and flow cytometry); format: cell-based, human; details: HCT116, 2 μM, fluorescence microscopy
[16] = system: HCT116 cells; assay: Apoptosis in co-culture cell model of HCT116 and NCM460; format: cell-based, human; details: 2 μM, 24 h, Caspase-3/7 Green Reagent, flow cytometry
Experimental: (§2) In order to differentiate the two different cell lines, NCM460 cells were pre-treated by blue-emissive CMF2HC dye prior to its co-culture with HCT116 cells. […] On the other hand, the co-culture model treated with 1 for 24 h was stained by FITC-Annexin V and propidium iodide, and imaged by fluorescence microscopy. Green and red fluorescence were primarily observed in cells without showing blue luminescence, i.e. HCT16 cells. […] The results of both fluorescence microscopy and flow cytometry support the high selectivity of 1 on killing colon cancer cells in the co-culture model of cancer and normal cells.
(§3) This co-culture model treated with 1 for 24 h had 25.04 and 5.01% of HCT116 and NCM460 cells, respectively, undergoing apoptosis as determined by Caspase-3/7 Green Reagent staining and flow cytometric analysis. This confirms the preferential induction of apoptosis by 1 of HCT116 cells over NCM460 cells in the co-culture model, regardless of the effect, if any, of the blue emissive CMF2HC dye.

[17] = system: NCM460 cells; assay: as above; format: cell-based, human; details: NCM460 in co-culture, 2 μM, 24 h, Caspase-3/7 Green Reagent, flow cytometry
Experimental: as §2, §3

[18] = system: A2780; assay: In vitro cytotoxicity, MTT assay; format: cell-based, human
[19] = IC50 of MIHA cells/IC50 of cancer cells
[20] = IC50 of NCM460 cells/IC50 of cancer cells

Question: Which IC50 [1] does the source give for C1=Cc2nc1c(-c1ccccc1)c1ccc([n-]1)c(-c1ccccc1)c1nc(c(-c3ccccc3)c3ccc([n-]3)c2-c2ccccc2)C=C1.[Au+3].[Cl-] [Au1a, [Au(TPP)]Cl, reference compound] here?
Answer: 400 ± 70 nM

Question: What about the “Incubation time after which amount in A2780adr cells decreases” value [2] of the same compound?
Answer: 0.5 h

Question: And the “Toxicity toward cancer cells compared to that toward MIHA cells” value ([3]; IC50 of non-tumorigenic MIHA cells/IC50 of cancer cells)?
Answer: 0.6

Question: What about the “Toxicity toward cancer cells compared to that toward NCM460 cells” value ([3]; IC50 of non-tumorigenic NCM460 cells/IC50 of cancer cells) of the same compound?
Answer: 0.1

Question: What about the IC50 ([3]; MTT assay, 72 h incubation, read-out: IC50) of the same compound?
Answer: 660 ± 40 nM

Question: What about the “Incubation time to induction of apoptosis” value [4] of the same compound?
Answer: 20 h

Question: What about the “Incubation time to large number of apoptotic events” value [4] of the same compound?
Answer: 32 h

Question: And the “Toxicity toward cancer cells compared to that toward MIHA cells” value [5, 19]?
Answer: 1.7

Question: And the “Toxicity toward cancer cells compared to that toward NCM460 cells” value [5, 20]?
Answer: 0.3

Question: And the IC50 ([5]; MTT assay, 72 h incubation)?
Answer: 230 ± 10 nM

Question: And the “IC50 for non-tumorigenic cells” value [6]?
Answer: submicromolar range

Question: What about the IC50 [7] of the same compound?
Answer: 70 ± 10 nM

Question: And the “Toxicity toward cancer cells compared to that toward MIHA cells” value ([8]; A2780adr, IC50 of MIHA cells/IC50 of cancer cells)?
Answer: 0.4

Question: What about the “Toxicity toward cancer cells compared to that toward NCM460 cells” value ([8]; A2780adr, IC50 of NCM460 cells/IC50 of cancer cells) of the same compound?
Answer: 0.06

Question: What about the IC50 ([8]; A2780adr, MTT assay, 72 h incubation) of the same compound?
Answer: 1100 ± 100 nM

Question: What about the “Resistance found in A2780adr” value ([8]; Determined by IC50 of A2780adr cells/IC50 of A2780 cells) of the same compound?
Answer: 0.11

Question: What about the IC50 [9] of the same compound?
Answer: 230 ± 40 nM

Question: What about the “Effective dose to combat tumor growth relative to lethal dose” value [10] of the same compound?
Answer: close to the lethal dose

Question: And the “Toxicity toward cancer cells compared to that toward MIHA cells” value ([11]; A2780cis, IC50 of MIHA cells/IC50 of cancer cells)?
Answer: 3.5

Question: And the “Toxicity toward cancer cells compared to that toward NCM460 cells” value ([11]; A2780cis, IC50 of NCM460 cells/IC50 of cancer cells)?
Answer: 0.4

Question: And the IC50 ([11]; A2780cis, MTT assay, 72 h incubation)?
Answer: 180 ± 10 nM

Question: What about the “Resistance found in A2780cis” value ([11]; Determined by IC50 of A2780cis cells/IC50 of A2780 cells) of the same compound?
Answer: 0.67

Question: What about the “Percentage of apoptotic cells” value [12] of the same compound?
Answer: 39.6%

Question: What about the “Percentage of apoptotic cells” value [13] of the same compound?
Answer: 39.3%

Question: What about the IC50 ([14]; HCT116, MTT assay, 72 h incubation) of the same compound?
Answer: 90 ± 20 nM

Question: What about the “Toxicity toward cancer cells compared to that toward MIHA cells” value ([14]; HCT-116, IC50 of MIHA cells/IC50 of cancer cells) of the same compound?
Answer: 4.4

Question: What about the “Toxicity toward cancer cells compared to that toward NCM460 cells” value ([14]; HCT-116, IC50 of NCM460 cells/IC50 of cancer cells) of the same compound?
Answer: 0.8

Question: And the “Incubation time to induction of apoptosis” value [15]?
Answer: 12 h

Question: What about the “Incubation time to significant apoptotic events / large population of apoptotic cells” value [15] of the same compound?
Answer: 32 h

Question: And the “Population percentage of apoptotic cells (corrected)” value [16]?
Answer: 54.6%

Question: And the “Population percentage of apoptotic cells (corrected)” value [17]?
Answer: 29.3%

Question: What about the “Toxicity toward cancer cells compared to that toward MIHA cells” value [18, 19] of the same compound?
Answer: 3.3

Question: And the “Toxicity toward cancer cells compared to that toward NCM460 cells” value [18, 20]?
Answer: 0.6

Question: What about the IC50 ([18]; MTT assay, 72 h incubation) of the same compound?
Answer: 120 ± 20 nM
